Data taken from patent US20060052451A1, “Method” (priority 2002, published 2006).

Legend:
[1] = target: T1, PPAR alpha (Rattus norvegicus, UniProt P37230); assay: PPAR alpha transactivation assay in COS-1 cells; type: cell-based; conditions: at 10 μM, mean±SD n=3
T1 construct: 25 ng of vector DNA carrying PPAR alpha, delta or gamma; expressed in transfected cells; host or cells: COS-1 (African green monkey kidney cells)
T1 sequence (P37230 1-468): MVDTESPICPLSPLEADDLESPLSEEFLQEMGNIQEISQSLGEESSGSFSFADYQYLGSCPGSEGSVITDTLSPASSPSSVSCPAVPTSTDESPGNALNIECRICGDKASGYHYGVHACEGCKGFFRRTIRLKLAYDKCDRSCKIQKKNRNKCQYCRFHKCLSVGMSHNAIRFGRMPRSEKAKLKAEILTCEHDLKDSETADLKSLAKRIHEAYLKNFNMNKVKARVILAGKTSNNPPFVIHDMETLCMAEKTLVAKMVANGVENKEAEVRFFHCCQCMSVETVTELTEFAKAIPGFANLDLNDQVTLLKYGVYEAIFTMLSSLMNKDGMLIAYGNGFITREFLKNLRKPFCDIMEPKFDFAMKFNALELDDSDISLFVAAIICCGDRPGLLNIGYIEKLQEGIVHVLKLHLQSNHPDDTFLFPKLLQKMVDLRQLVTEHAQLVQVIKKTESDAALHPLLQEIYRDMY

[2] = Plasma levels of PFOA after 11 days oral dosing in SD rats (LC/MS/MS); type: in vivo, rat; conditions: 25 mg/kg oral daily for 11 days, 24 hours after final administration
Procedure: The study consisted of one control group of 8 male CD Sprague Dawley rats (8-10-weeks old; obtained from Harlan, UK) and 4 test groups that contained 4 rats. Animals received powdered RM1 diet ad libitum for the duration of the study. […] All chemicals were dissolved in Mazola corn oil (at 2.5 mg/ml) and test compounds were administered at 10 ml/kg bodyweight. Control animal received Mazola corn oil only. All animals were sacrificed after 11 days. Animals were killed by exposure to rising concentrations of CO2, and blood was harvested into lithium/heparin tubes for plasma.
Rat plasma samples were denatured by adding acetonitrile, and the amount of perfluorooctanoic acid (PFOA) present was determined by LC/MS/MS.

[3] = 21-day diet study, bodyweights of SD rats; type: in vivo, rat; conditions: 300 ppm in diet, 21 days
Procedure: This experiment investigated the effect of compounds of different % linearity on body weight over a longer study period.
The diet study consisted of one control group of 4 male animals and 4 test groups of 4 male animals (as specified earlier in this Example). Animals received powdered RM1 diet alone, or RM1 diet containing 300 ppm XEN1001 or XEN1002, ad libitum for the duration of the study. Bodyweights were measured daily for 21 days.

SMILES	Fold activation of PPAR alpha, positive control [1]	Plasma concentration of PFOA (free acid) [2]	Lost bodyweight up to day [3]	Weight loss compared with XEN1001 [3]
Cc1cccc(Nc2cc(Cl)nc(SCC(=O)O)n2)c1C [Wyeth14643]	8.88 ± 1.94 fold	–	–	–
N.O=C(O)C(F)(F)C(F)(F)C(F)(F)C(F)(F)C(F)(F)C(F)(F)C(F)(F)F [XEN1002, Ammoniumperfluorooctanoate]	–	equimolar concentrations of PFOA	10 days	more pronounced
